Laboratory results: US20020055465A1, “Nocathiacin antibiotics prepared by biotransformation or chemical methods” (priority 2000, published 2002)
In brackets after ≈: the same amount, converted by molar mass. Structures can show the parent of a compound that is named as a salt. Where two headings read alike, the source gives them in different places.

Experiments:
[1] = test system: Staphylococcus epidermidis; assay: MIC, broth micro dilution assay (NCCLS); type: cell-based; settings: strain A24548
Protocol: (§1) The serial broth dilution method used Mueller-Hinton medium except for the Streptococcus pneumoniae which was tested in 50% Mueller-Hinton medium and 50% Todd Hewitt medium. The final bacterial inoculate contained approximately 5×10^5 cfu/well and was run on microtiter plates. The volume of each well was 100 μL and the plates were incubated at 35° C. for 18 hours in ambient air. The MIC was defined as the lowest drug concentration that prevented visible growth.

Enterococcus faecium = assay: MIC, broth micro dilution assay (NCCLS); type: cell-based
Protocol: as §1

Streptococcus pneumoniae = assay: MIC, broth micro dilution assay (NCCLS); type: cell-based
Protocol: as §1

Staphylococcus aureus = assay: MIC, broth micro dilution assay (NCCLS); type: cell-based
Protocol: as §1

[2] = test system: Moraxella catarrhalis/β-lactamase positive; assay: MIC, broth micro dilution assay (NCCLS); type: cell-based; settings: strain A22344
Protocol: as §1

Enterococcus faecalis = assay: MIC, broth micro dilution assay (NCCLS); type: cell-based; settings: strain A20688
Protocol: as §1

[3] = test system: Staphylococcus haemolyticus; assay: MIC, broth micro dilution assay (NCCLS); type: cell-based; settings: strain A27298
Protocol: as §1

[4] = test system: Bacillus subtilis/ATCC6633; assay: MIC, broth micro dilution assay (NCCLS); type: cell-based
Protocol: as §1

[5] = test system: Staphylococcus aureus A15090; assay: Systemic Staphylococcus aureus infection model; type: in vivo; settings: female ICR mice infected IP with S. aureus A15090; compound SC at 1 and 4 hours post-infection
Protocol: Nocathiacin IV and nocathiacin IV 6-deoxyglucoside were evaluated for antibiotic activity in vivo, in a systemic infection model using female ICR mice. The animals were infected intraperitoneally (IP) with 6.5×10^6 CFU of an overnight culture of Staphylococcus aureus A15090 suspended in 7% mucin. The compound was dissolved in a test formulation consisting of 10% DMSO, 5% Tween 80 and 85% water. The solution was administered subcutaneously (SC) at 100 mg/kg total dose (2×50 mg/kg doses at 1 and 4 hours post-infection). The PD50 of nocathiacin IV was determined to be 1.07 mg/kg. The PD50 of nocathiacin IV 6-deoxyglucoside was determined to be 6.4 mg/kg.

[6] = Enterococcus faecium/vancomycin resistant, strain A28142
[7] = Streptococcus pneumoniae, strain A9585, 50% Mueller-Hinton/50% Todd Hewitt medium
[8] = Streptococcus pneumoniae/penicillin intermediate, strain A27881
[9] = Streptococcus pneumoniae/penicillin resistant, strain A28272, read-out: MIC
[10] = 209P / ATCC 6538P, Staphylococcus aureus/209P/ATCC6538P, strain A9497
[11] = Staphylococcus aureus + 50% calf serum, strain A15090
[12] = Staphylococcus aureus + 50% calf serum, strain A27223
[13] = Staphylococcus aureus/homo methicillin resistant, strain A27223
[14] = Staphylococcus aureus/β lactamase positive, strain A15090
[15] = Enterococcus faecalis + 50% calf serum
[16] = Enterococcus faecalis, read-out: MIC

| Compound | MIC [1] | MIC (Enterococcus faecium; [6]) | MIC (Enterococcus faecium; strain A24885) | MIC (Streptococcus pneumoniae; [7]) | MIC (Streptococcus pneumoniae; [8]) | MIC (Streptococcus pneumoniae; [9]) | MIC (Staphylococcus aureus; [10]) | MIC (Staphylococcus aureus; [11]) | MIC (Staphylococcus aureus; [12]) | MIC (Staphylococcus aureus; [13]) | MIC (Staphylococcus aureus; [14]) | MIC [2] | MIC (Enterococcus faecalis; [15]) | MIC (Enterococcus faecalis; [16]) | MIC [3] | MIC [4] | PD50 [5] |
| --- | --- | --- | --- | --- | --- | --- | --- | --- | --- | --- | --- | --- | --- | --- | --- | --- | --- |
| CO/C(C)=C1/NC(=O)C(C(C)O)NC(=O)c2csc(n2)-c2cc(O)c(-c3nc(C(N)=O)cs3)nc2-c2csc(n2)C2COC(=O)c3c4c5c(cccc5n3O)COC(=O)C(OC3CC(C)(O)C(N(C)C)C(C)O3)C(OC4)C(NC(=O)c3csc1n3)c1nc(cs1)C(=O)N2 (stereo not shown) [Nocathiacin IV (HCI salt), nocathiacin IV] | 0.06 µg/mL | 0.03 µg/mL | 0.06 µg/mL | 0.001 µg/mL | 0.001 µg/mL | 0.001 µg/mL | 0.03 µg/mL | 0.03 µg/mL | 0.03 µg/mL | 0.03 µg/mL | 0.03 µg/mL | 0.25 µg/mL | 0.03 µg/mL | 0.03 µg/mL | 0.06 µg/mL | 0.06 µg/mL | – |
| CO/C(C)=C1/NC(=O)C(C(C)O)NC(=O)c2csc(n2)-c2cc(OC3OC(C)C(O)C(O)C3O)c(-c3nc(C(N)=O)cs3)nc2-c2csc(n2)C2COC(=O)c3c4c5c(cccc5n3O)COC(=O)C(OC3CC(C)(O)C(N(C)C)C(C)O3)C(OC4)C(NC(=O)c3csc1n3)c1nc(cs1)C(=O)N2 (stereo not shown) [nocathiacin IV 6-deoxyglucoside] | 0.25 µg/mL (≈ 0.165 µM) | 0.5 µg/mL (≈ 0.33 µM) | 0.5 µg/mL (≈ 0.33 µM) | 0.03 µg/mL (≈ 0.0198 µM) | 0.03 µg/mL (≈ 0.0198 µM) | 0.03 µg/mL (≈ 0.0198 µM) | 0.5 µg/mL (≈ 0.33 µM) | 0.25 µg/mL | 0.25 µg/mL | 0.5 µg/mL (≈ 0.33 µM) | 0.5 µg/mL (≈ 0.33 µM) | 2 µg/mL (≈ 1.32 µM) | 0.25 µg/mL | 0.25 µg/mL (≈ 0.165 µM) | 0.5 µg/mL (≈ 0.33 µM) | 0.5 µg/mL (≈ 0.33 µM) | 6.4 mg/kg |
| CO/C(C)=C1/NC(=O)C(C(C)O)NC(=O)c2csc(n2)-c2cc(O)c(-c3nc(C(N)=O)cs3)nc2-c2csc(n2)C2COC(=O)c3c4c5c(cccc5n3O)COC(=O)C(OC3CC(C)(O)C(N(C)C)C(C)O3)C(OC4)C(NC(=O)c3csc1n3)c1nc(cs1)C(=O)N2 (stereo not shown) [nocathiacin IV] | – | – | – | – | – | – | – | – | – | – | – | – | – | – | – | – | 1.07 mg/kg |
